In patent US20090163406A1, “COMPOSITIONS AND METHODS FOR DIAGNOSING AND TREATING BRAIN CANCER AND IDENTIFYING NEURAL STEM CELLS” (THE REGENTS OF THE UNIVERSITY OF CALIFORNIA, priority 2004, published 2009):
Entries after “also recorded” stand apart in the source; their conditions may differ.

Legend:
[1] = system: primary cerebellar granule cells precursors (CGPs); assay: Cell cycle analysis and cell counts in cultured cerebellar granule cell precursors; type: cell-based, mouse; settings: for fraction of cells in S-phase: CGP with mitogen, 50 uM, 24 hours, flow cytometric DNA content
Protocol: FIG. 9F: described below. […] Yellow circle indicates normally cycling cells.
Culture of Cerebellar Granule Cell Precursors: Cerebella were harvested from P6-P8 CD1 mouse pups and digested in Papain with DNase, and dissociated in PBS BSA with fire polished pipettes followed by a cell strainer. Granule cell precursors were then separated on a 35%/65% percoll step gradient at 1500 g for 12 minutes as previously described (Wechsler-Reya, supra (1999)). Cells were either transfected at this point or plated at 250K cells/well onto Poly-L-Lysine coated glass coverslips in 24 well plates in 330 uls of Neurobasal Media containing 2% B27 supplement, 1 mM sodium pyruvate, 2 mM glutamine, and 1% penicillin/streptomycin, supplemented with 2.5 ug/ml mouse recombinant Sonic Hedge Hog (R&D systems 461-5H-025) as noted in the text, above.
Cell counts: For immunocytochemistry, all cells in 10 random 40× fields were counted. For the stem cell ablation experiments we used stereo investigator to count all PBK/TOPK cells in the SEZ ventral to the anterior horn at the level of the anterior commissure bilaterally in 3 replicate animals. T-tests were performed in Microsoft Excel.

[2] = system: neural progenitors cultured from E12 mouse telencephalic germinal zones; assay: Cell number and cell cycle of attached E12 telencephalic neural progenitors in bFGF
[3] = system: Daoy cells; assay: Daoy medulloblastoma cell growth (total cell number); type: cell-based, human; settings: cyclopamine alone or combined with MELK siRNA
Protocol: Transient Transfection. […] For transfection of plasmid vectors, the cells were incubated with reagents for 6 hours with the primary progenitor cells, and for 24 hours with N2a cells. […] Incubation with siRNA complex was 6 hours with primary cells and 24 hours with cell lines.
We then examined whether the effect of MELK siRNA is for cell survival or cell proliferation.
Propium iodide-labeled tumor populations were measured for cell death assay after treatment of siRNA for two days (e).

[4] = system: dividing GFAP positive cells; assay: Ganciclovir ablation in GFAP promoter HSV-TK transgenic mice, SEZ immunohistochemistry; type: in vivo, mouse; settings: 21 days ganciclovir, vs non-transgenic controls
Excerpt: PBK/TOPK positive cells are mitotically active progenitors in vivo: The expression pattern in vitro as a mitotically active kinase, coupled with in vivo data, provided evidence that PBK/TOPK was expressed in several mitotically active progenitor cell populations in the central nervous system, but not in quiescent, slower cycling putative stem cells. To more conclusively establish PBK/TOPK expression in stem and progenitor cells in vivo, we examined PBK/TOPK in transgenic mice expressing the herpes simplex virus thymidine kinase gene (HSV-TK) under control of the GFAP promoter (see, e.g., Bush, T. G., et al., Neuron (1999) 23:297-308; Garcia, supra (2004)). Since HSV-TK phosphorylates the drug ganciclovir and phosphorylated ganciclovir kills cells at mitosis, when these mice are given ganciclovir, all dividing GFAP positive cells are killed. […] Three transgenic mice were treated for 21 days with ganciclovir followed by BrdU injections for two days, and then processed for immunohistochemistry. […] This finding provided direct in vivo evidence that PBK/TOPK positive cells arise from proliferating GFAP positive cells, consistent with PBK/TOPK being expressed exclusively by proliferating progenitor cells in the adult brain. […]
Cell counts: For immunocytochemistry, all cells in 10 random 40× fields were counted. […]

[5] = CGP, twenty-four hours of P38 inhibition

## C[S+]([O-])c1ccc(-c2nc(-c3ccncc3)c(-c3ccc(F)cc3)[nH]2)cc1 (centres unmarked) [SB203580]
[1]
  fraction of cells in S-phase: reduces fraction of S-Phase cells; also recorded: dramatic decrease in the fraction of cells in S-phase
[1]; listed as sb203580
  fraction of cells in S-phase: significant decrease in the number of cells re-entering S-phase
[1]; CGP without mitogen treatment
  cell number in the absence of mitogen: no impact on cell number
[1]; [5]
  number of NeuN positive cells: without significantly impacting; also recorded: without any impact
  number of PBK/TOPK positive cells: reduces PBK/TOPK positive cells; also recorded: reduction in the number of the PBK/TOPK positive cells
[1]; proliferating neuronal progenitors
  total number of cells: decrease in the total number of cells
[2]; in the presence of bFGF
  cycling cells assessed by flow cytometry: decrease in cycling cells
[2]; long exposures or high doses, 48 hours at highest dose
  DNA aneuploidy: resulted in DNA aneuploidy; also recorded: accumulation of DNA-aneuploid cells
[2]; varying doses, in the presence of bFGF
  cell number: dose dependant decrease in proliferation; also recorded: dose dependant decrease in cell number

## CC1=C2C[C@H]3[C@@H](CC=C4C[C@@H](O)CC[C@@]43C)[C@@H]2CC[C@]12O[C@@H]1C[C@H](C)CN[C@H]1[C@H]2C [cyclopamine]
[3]
  Daoy cell growth / proliferation with shh-Gli1 pathway inhibitor: inhibition of cell growth

## Nc1nc(O)c2ncn(COC(CO)CO)c2n1 [ganciclovir]
[4]
  Dcx positive cells in SEZ: complete ablation
